Laboratory results published in PMC10269871, “Small Molecule Inhibition of an Exopolysaccharide Modification Enzyme is a Viable Strategy To Block Pseudomonas aeruginosa Pel Biofilm Formation” (Microbiology Spectrum, 2023).

Biological target: T1, PelA (Pseudomonas aeruginosa, UniProt Q9HZE4)
T1 construct: PelAΔ46Chis6, residues 47 to 948, C-terminal His6
Assay: fluorogenic AMMU esterase assay with purified PelA, Michaelis-Menten global noncompetitive fit (IC50 […]); reversible by gel filtration
Type: biochemical

T1 sequence (Q9HZE4 entry or part of it): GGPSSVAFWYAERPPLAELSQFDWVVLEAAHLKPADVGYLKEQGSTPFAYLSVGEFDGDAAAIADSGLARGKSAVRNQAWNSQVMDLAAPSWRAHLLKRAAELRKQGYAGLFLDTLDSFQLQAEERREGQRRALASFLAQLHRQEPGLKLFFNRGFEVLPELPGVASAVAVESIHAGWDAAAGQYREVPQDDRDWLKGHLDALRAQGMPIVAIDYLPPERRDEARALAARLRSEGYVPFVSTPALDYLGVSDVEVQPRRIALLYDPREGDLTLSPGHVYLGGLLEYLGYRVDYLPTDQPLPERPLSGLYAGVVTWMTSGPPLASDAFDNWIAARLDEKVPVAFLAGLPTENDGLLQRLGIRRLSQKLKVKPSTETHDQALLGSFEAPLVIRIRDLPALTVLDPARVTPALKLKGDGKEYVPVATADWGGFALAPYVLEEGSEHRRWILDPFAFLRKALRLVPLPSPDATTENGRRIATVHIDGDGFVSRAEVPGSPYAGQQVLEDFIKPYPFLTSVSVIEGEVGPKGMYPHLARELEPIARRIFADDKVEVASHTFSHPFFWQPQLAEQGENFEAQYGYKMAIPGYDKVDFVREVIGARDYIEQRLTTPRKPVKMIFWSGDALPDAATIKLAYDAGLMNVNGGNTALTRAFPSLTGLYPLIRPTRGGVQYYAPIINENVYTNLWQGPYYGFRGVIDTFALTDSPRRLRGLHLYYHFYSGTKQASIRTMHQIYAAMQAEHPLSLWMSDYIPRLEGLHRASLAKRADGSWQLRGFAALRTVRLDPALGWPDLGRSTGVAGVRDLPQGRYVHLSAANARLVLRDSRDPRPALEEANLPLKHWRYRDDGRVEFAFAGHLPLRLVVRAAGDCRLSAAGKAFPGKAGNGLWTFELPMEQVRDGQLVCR

In the case of `CSC(=S)N/N=C/c1ccccn1` [SK-017154-O, methyl 2-(2-pyridinylmethylene) hydrazinecarbodithioate], the Ki is reported as 1130 ± 30 nM.
